Experimental findings from patent US5753617A, “Peptide inhibitors of cellular adhesion” (Centocor, Inc., priority 1995, dated 1998) are described below.

The conditions of data set [1]: disulfide bond, water.
The next data set concerns the target T1, P-selectin (Homo sapiens, UniProt P16109).
T1 construct: P-selectin is isolated from human platelet lysates; from tissue; host or cells: human platelets (outdated platelet packs from a blood bank)
T1 sequence (P16109 42-830): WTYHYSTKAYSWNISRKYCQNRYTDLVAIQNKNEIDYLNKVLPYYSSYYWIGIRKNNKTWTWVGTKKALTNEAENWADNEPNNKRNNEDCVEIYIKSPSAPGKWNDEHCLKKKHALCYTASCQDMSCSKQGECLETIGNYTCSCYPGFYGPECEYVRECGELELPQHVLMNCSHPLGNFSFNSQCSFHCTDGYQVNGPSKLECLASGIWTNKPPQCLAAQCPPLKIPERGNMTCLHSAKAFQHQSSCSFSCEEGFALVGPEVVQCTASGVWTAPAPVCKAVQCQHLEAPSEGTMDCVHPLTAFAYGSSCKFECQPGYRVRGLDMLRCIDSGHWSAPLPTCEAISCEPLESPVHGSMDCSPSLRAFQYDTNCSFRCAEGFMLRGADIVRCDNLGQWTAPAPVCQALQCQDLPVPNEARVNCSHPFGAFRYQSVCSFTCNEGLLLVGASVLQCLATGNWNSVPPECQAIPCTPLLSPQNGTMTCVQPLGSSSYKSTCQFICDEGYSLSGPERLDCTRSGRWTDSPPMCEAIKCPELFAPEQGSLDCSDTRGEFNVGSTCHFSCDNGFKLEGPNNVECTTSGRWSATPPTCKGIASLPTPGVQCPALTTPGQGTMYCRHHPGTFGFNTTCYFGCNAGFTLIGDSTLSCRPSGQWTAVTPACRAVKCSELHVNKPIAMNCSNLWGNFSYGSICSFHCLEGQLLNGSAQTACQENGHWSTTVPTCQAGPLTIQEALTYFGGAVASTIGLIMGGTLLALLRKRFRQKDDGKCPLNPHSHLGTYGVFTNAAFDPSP
Briefly: Inhibition of human neutrophil adhesion to purified P-selectin immobilized on plastic wells. Format: cell-based. The conditions noted are these: inhibiting the binding of human neutrophils to P-selectin. A digest of the protocol: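 Isolated human neutrophils (2×10^5 per well) in HBSS with Ca2+/Mg2+ and HSA added to wells coated overnight at 4° C with platelet-derived P-selectin (5 micrograms/mL), HSA-blocked; 20 min at 22° C. Nonadherent cells removed by inverted centrifugation at 150 g; adherent cells quantified by myeloperoxidase activity.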

Where two headings read alike, the source gives them in different places. Where a SMILES comes first, the peptide text is derived from it. Bridges are numbered along the chain shown (N, C = ends). [ ]: non-standard residue; d: D form.

A word on the IC50: it is the concentration that inhibits the measured activity by half. Low values mean greater potency in that assay, high ones weaker potency in that assay. For the compound `CC(C)[C@@H](NC(=O)[C@@H](Cc1c[nH]c2ccccc12)NC(=O)[C@H](NC(=O)[C@@H](Cc1c[nH]c2ccccc12)NC(=O)[C@H]1CSSC[C@@H](NC(=O)[C@@H](CCCCN)NC(=O)[C@H](N)CCCNC(=N)N)C(=O)NCC(=O)N[C@@H](CCC(=O)O)C(=O)N1)[C@H](C)O)C(N)=O` [(66)] (H-[dR][dK][dC]GE[dC][dW][dT][dW][dV]-NH2; disulfide 3-6), the ring closure, yield of all isomers in data set [1] (from CC(C)[C@@H](NC(=O)[C@@H](Cc1c[nH]c2ccccc12)NC(=O)[C@H](NC(=O)[C@@H](Cc1c[nH]c2ccccc12)NC(=O)[C@@H](CS)NC(=O)[C@H](CCC(=O)O)NC(=O)CNC(=O)[C@@H](CS)NC(=O)[C@@H](CCCCN)NC(=O)[C@H](N)CCCNC(=N)N)[C@H](C)O)C(N)=O, Cu wire, NH4OH, 3.16 mM, 20.0 h) was determined as 7.4%. For the same compound, on P-selectin, the IC50 turned out to be 287 µM.

Take `CC[C@H](C)[C@@H]1NC(=O)CNC(=O)[C@H](NC(=O)[C@@H](CCCCN)NC(=O)[C@H](N)CCCNC(=N)N)CSSC[C@H](C(=O)N[C@H](Cc2c[nH]c3ccccc23)C(=O)N[C@@H](C(=O)N[C@H](Cc2c[nH]c3ccccc23)C(=O)N[C@@H](C(N)=O)C(C)C)[C@H](C)O)NC1=O` [(68)] (H-[dR][dK][dC]GI[dC][dW][dT][dW][dV]-NH2; disulfide 3-6): the ring closure, yield of all isomers in data set [1] (from CC[C@H](C)[C@H](NC(=O)CNC(=O)[C@@H](CS)NC(=O)[C@@H](CCCCN)NC(=O)[C@H](N)CCCNC(=N)N)C(=O)N[C@H](CS)C(=O)N[C@H](Cc1c[nH]c2ccccc12)C(=O)N[C@@H](C(=O)N[C@H](Cc1c[nH]c2ccccc12)C(=O)N[C@@H](C(N)=O)C(C)C)[C@H](C)O, Cu wire, NH4OH, 3.2 mM, 20.0 h) was 2.8%. Also, the IC50 on P-selectin was found to be 3.7 µM.

On to `CC(C)C[C@@H]1NC(=O)CNC(=O)[C@H](NC(=O)[C@@H](CCCCN)NC(=O)[C@H](N)CCCNC(=N)N)CSSC[C@H](C(=O)N[C@H](Cc2c[nH]c3ccccc23)C(=O)N[C@@H](C(=O)N[C@H](Cc2c[nH]c3ccccc23)C(=O)N[C@@H](C(N)=O)C(C)C)[C@H](C)O)NC1=O` [(69)] (H-[dR][dK][dC]GL[dC][dW][dT][dW][dV]-NH2; disulfide 3-6), for which the ring closure, yield of all isomers in data set [1] (from CC(C)C[C@H](NC(=O)CNC(=O)[C@@H](CS)NC(=O)[C@@H](CCCCN)NC(=O)[C@H](N)CCCNC(=N)N)C(=O)N[C@H](CS)C(=O)N[C@H](Cc1c[nH]c2ccccc12)C(=O)N[C@@H](C(=O)N[C@H](Cc1c[nH]c2ccccc12)C(=O)N[C@@H](C(N)=O)C(C)C)[C@H](C)O, DMSO, 0.252 mM, 25.0 °C, 96.0 h) is 8.3%. For the same compound, the IC50 at P-selectin worked out at 146 µM.

For the compound `CC(C)[C@@H](NC(=O)[C@@H](Cc1c[nH]c2ccccc12)NC(=O)[C@H](NC(=O)[C@@H](Cc1c[nH]c2ccccc12)NC(=O)[C@H]1CSSC[C@@H](NC(=O)[C@@H](CCCCN)NC(=O)[C@H](N)CCCNC(=N)N)C(=O)N[C@@H](CCCCN)C(=O)N[C@@H](Cc2ccccc2)C(=O)N1)[C@H](C)O)C(N)=O` [(70)] (H-[dR][dK][dC]KF[dC][dW][dT][dW][dV]-NH2; disulfide 3-6), the ring closure, yield of all isomers in data set [1] (from CC(C)[C@@H](NC(=O)[C@@H](Cc1c[nH]c2ccccc12)NC(=O)[C@H](NC(=O)[C@@H](Cc1c[nH]c2ccccc12)NC(=O)[C@@H](CS)NC(=O)[C@H](Cc1ccccc1)NC(=O)[C@H](CCCCN)NC(=O)[C@@H](CS)NC(=O)[C@@H](CCCCN)NC(=O)[C@H](N)CCCNC(=N)N)[C@H](C)O)C(N)=O, DMSO, 0.708 mM, 48.0 h) was 8.8%. On P-selectin, this compound gave an IC50 of 85.9 µM.

For `CC(C)[C@@H](NC(=O)[C@@H](Cc1c[nH]c2ccccc12)NC(=O)[C@H](NC(=O)[C@@H](Cc1c[nH]c2ccccc12)NC(=O)[C@H]1CSSC[C@@H](NC(=O)[C@@H](CCCCN)NC(=O)[C@H](N)CCCNC(=N)N)C(=O)NCC(=O)N[C@@H](CCCCN)C(=O)N1)[C@H](C)O)C(N)=O` [(71)] (H-[dR][dK][dC]GK[dC][dW][dT][dW][dV]-NH2; disulfide 3-6), the ring closure, yield of all isomers in data set [1] (from CC(C)[C@@H](NC(=O)[C@@H](Cc1c[nH]c2ccccc12)NC(=O)[C@H](NC(=O)[C@@H](Cc1c[nH]c2ccccc12)NC(=O)[C@@H](CS)NC(=O)[C@H](CCCCN)NC(=O)CNC(=O)[C@@H](CS)NC(=O)[C@@H](CCCCN)NC(=O)[C@H](N)CCCNC(=N)N)[C@H](C)O)C(N)=O, DMSO, 0.181 mM, 72.0 h) amounted to 10.4%. The compound also gave an IC50 on P-selectin of 2000 µM.

With `CC(C)[C@@H](NC(=O)[C@@H](Cc1c[nH]c2ccccc12)NC(=O)[C@H](NC(=O)[C@H]1CCCN1C(=O)[C@H]1CSSC[C@@H](NC(=O)[C@@H](CCCCN)NC(=O)[C@H](N)CCCNC(=N)N)C(=O)NCC(=O)N[C@@H](Cc2ccccc2)C(=O)N1)[C@H](C)O)C(N)=O` [(76)] (H-[dR][dK][dC]GF[dC][dP][dT][dW][dV]-NH2; disulfide 3-6), the ring closure, yield of all isomers in data set [1] (from CC(C)[C@@H](NC(=O)[C@@H](Cc1c[nH]c2ccccc12)NC(=O)[C@H](NC(=O)[C@H]1CCCN1C(=O)[C@@H](CS)NC(=O)[C@H](Cc1ccccc1)NC(=O)CNC(=O)[C@@H](CS)NC(=O)[C@@H](CCCCN)NC(=O)[C@H](N)CCCNC(=N)N)[C@H](C)O)C(N)=O, DMSO, 0.14 mM, 192.0 h) amounted to 20.6%. Also, the IC50 at P-selectin was 105 µM.

The compound `CC(C)[C@@H](NC(=O)[C@@H](Cc1ccccc1)NC(=O)[C@H](NC(=O)[C@@H](Cc1c[nH]c2ccccc12)NC(=O)[C@H]1CSSC[C@@H](NC(=O)[C@@H](CCCCN)NC(=O)[C@H](N)CCCNC(=N)N)C(=O)NCC(=O)N[C@@H](Cc2ccccc2)C(=O)N1)[C@H](C)O)C(N)=O` [(79)] (H-[dR][dK][dC]GF[dC][dW][dT][dF][dV]-NH2; disulfide 3-6) had a ring closure, yield of all isomers in data set [1] (from CC(C)[C@@H](NC(=O)[C@@H](Cc1ccccc1)NC(=O)[C@H](NC(=O)[C@@H](Cc1c[nH]c2ccccc12)NC(=O)[C@@H](CS)NC(=O)[C@H](Cc1ccccc1)NC(=O)CNC(=O)[C@@H](CS)NC(=O)[C@@H](CCCCN)NC(=O)[C@H](N)CCCNC(=N)N)[C@H](C)O)C(N)=O, DMSO, 0.101 mM) of 15.2%. In addition, the 50% inhibitory concentration (IC50) on P-selectin was determined as 7.7 µM.

Regarding `CC(C)[C@@H](NC(=O)[C@@H](Cc1c[nH]c2ccccc12)NC(=O)[C@H](NC(=O)[C@@H](Cc1c[nH]c2ccccc12)NC(=O)[C@H]1CSSC[C@@H](NC(=O)[C@@H](CCCCN)NC(=O)[C@H](N)CCCNC(=N)N)C(=O)N2CCC[C@H]2C(=O)N[C@@H](Cc2ccccc2)C(=O)N1)[C@H](C)O)C(N)=O` [(84)] (H-[dR][dK][dC]PF[dC][dW][dT][dW][dV]-NH2; disulfide 3-6), the ring closure, yield of all isomers in data set [1] (from CC(C)[C@@H](NC(=O)[C@@H](Cc1c[nH]c2ccccc12)NC(=O)[C@H](NC(=O)[C@@H](Cc1c[nH]c2ccccc12)NC(=O)[C@@H](CS)NC(=O)[C@H](Cc1ccccc1)NC(=O)[C@@H]1CCCN1C(=O)[C@@H](CS)NC(=O)[C@@H](CCCCN)NC(=O)[C@H](N)CCCNC(=N)N)[C@H](C)O)C(N)=O, air (copper wire, ammonium acetate pH 8.5), 0.756 mM, 25.0 °C) is 12%. In addition, the half-maximal inhibitory concentration (IC50) on P-selectin was determined as 26.4 µM.

Regarding `CC(C)[C@@H]1NC(=O)CNC(=O)[C@H](NC(=O)[C@@H](CCCCN)NC(=O)[C@H](N)CCCNC(=N)N)CSSC[C@H](C(=O)N[C@H](Cc2c[nH]c3ccccc23)C(=O)N[C@@H](C(=O)N[C@H](Cc2c[nH]c3ccccc23)C(=O)N[C@@H](C(N)=O)C(C)C)[C@H](C)O)NC1=O` [(89)] (H-[dR][dK][dC]GV[dC][dW][dT][dW][dV]-NH2; disulfide 3-6), in data set [1] (from CC(C)[C@H](NC(=O)CNC(=O)[C@@H](CS)NC(=O)[C@@H](CCCCN)NC(=O)[C@H](N)CCCNC(=N)N)C(=O)N[C@H](CS)C(=O)N[C@H](Cc1c[nH]c2ccccc12)C(=O)N[C@@H](C(=O)N[C@H](Cc1c[nH]c2ccccc12)C(=O)N[C@@H](C(N)=O)C(C)C)[C@H](C)O, DMSO, 0.387 mM, 25.0 °C, 72.0 h), the ring closure, yield of all isomers was found to be 4%. The compound further registered a half-maximal inhibitory concentration (IC50) on P-selectin of 22.3 µM.

Consider `CC(C)[C@@H](NC(=O)[C@@H](CCCNC(=N)N)NC(=O)[C@H](NC(=O)[C@@H](Cc1c[nH]c2ccccc12)NC(=O)[C@H]1CSSC[C@@H](NC(=O)[C@@H](CCCCN)NC(=O)[C@H](N)CCCNC(=N)N)C(=O)NCC(=O)N[C@@H](Cc2ccccc2)C(=O)N1)[C@H](C)O)C(N)=O` [(90)] (H-[dR][dK][dC]GF[dC][dW][dT][dR][dV]-NH2; disulfide 3-6), for which the ring closure, yield of all isomers in data set [1] (from CC(C)[C@@H](NC(=O)[C@@H](CCCNC(=N)N)NC(=O)[C@H](NC(=O)[C@@H](Cc1c[nH]c2ccccc12)NC(=O)[C@@H](CS)NC(=O)[C@H](Cc1ccccc1)NC(=O)CNC(=O)[C@@H](CS)NC(=O)[C@@H](CCCCN)NC(=O)[C@H](N)CCCNC(=N)N)[C@H](C)O)C(N)=O, DMSO, 0.747 mM, 16.0 h) came out at 18.5%. The same compound returned an IC50 on P-selectin of 9.9 µM.
